Laboratory results: patent publication US20010001713A1, “Composition and method for measuring the foliar uptake of agrochemicals” (priority 1999, published 2001)
Like-named read-outs stand apart in the source and are kept apart here.

Legend:
rice plants [1] = settings: in vivo
cucumber leaves [2] = test: Selection of a penetrant for the absorption of dimethomorph by cucumber leaves; settings: 24 hours after spraying, dimethomorph 250 ppm (Forum wettable powder) + penetrant 1,000 ppm
Description: (§1) Forum wettable powder(a 25% dimethomorph formulation, Dongbang Agro Co., Ltd., Korea) was dispersed in water and added thereto were one of the penetrant candidate materials listed in Table 4 and Congo Red to obtain an agrochemical solution containing dimethomorph, a penetrant candidate and Congo Red at concentrations of 250 ppm, 1,000 ppm and 200 ppm, respectively. A control containing no penetrant was also prepared.
The agrochemical solution and control thus prepared were sprayed on leaves of each of six cucumber plants having 4 to 5 leaves, as well as on six glass plates(10 cm×10 cm). Immediately after the spraying, the sprayed cucumber leaves from 3 cucumber plants and three glass plates were washed with 12 ml portion of 30% acetonitrile-aqueous solution for 3 minutes to obtain standard wash extracts and controls.
The remaining three cucumber pots and three glass plates were stored in the dark at room temperature, and the same procedure was repeated at 24 hours after the spraying.
The concentrations of dimethomorph and Congo Red in the wash extracts were measured by HPLC(Spectra 200 Programmable Wavelength Detector, acetonitrile-water solvent programming, 42%-80%) . The wash extracts obtained immediately after the spraying were used as standard solutions, and Congo Red, as an internal standard. The foliar uptake rate of dimethomorph was calculated by comparing the concentrations of dimethomorph and Congo Red in the wash extracts obtained immediately after the spraying and at 24 hours after the spraying.

rice plants [3] = settings: in vivo; for Time-dependent Uptake by Rice(%) (Mean ± S.D.(n = 3)) I.A. / Time-dependent Uptake by Rice(%) (Mean ± S.D.(n = 3)) after 1 hr / Time-dependent Uptake by Rice(%) (Mean ± S.D.(n = 3)) after 3 hrs / Time-dependent Uptake by Rice(%) (Mean ± S.D.(n = 3)) after 6 hrs / Time-dependent Uptake by Rice(%) (Mean ± S.D.(n = 3)) after 12 hrs / Time-dependent Uptake by Rice(%) (Mean ± S.D.(n = 3)) after 24 hrs: Dongjin byeo
cucumber leaves [4] = test: Foliar uptake of agrochemicals by cucumber plants (Congo Red tracer method); settings: for Time-dependent Uptake by Cucumber(%) (Mean ± S.D.(n = 3)) after 24 hrs: 24 hrs after spraying
Description: (§2) (Step 1) Preparation of a solution containing agrochemicals and Congo Red
(§3) Since dimethomorph is not readily absorbed by the plant, 0.1% of stearylamine ethoxylate(SN, moles of ethylene oxide added: 10) was added as an adjuvant to enhance its foliar uptake.
(§4) Cucumber seeds(Baktadagi, Hung Nong Seed Co., Ltd., Korea) were sowed in disposable resin cup pots (id 47 mm×50 mm) at a density of three seeds per pot and cultivated in a greenhouse. Upon the complete development of cotyledons, the cucumber plants were each transplanted to a disposable resin cup pot(id 66 mm×h 66 mm) and cultivated in a greenhouse until the development of 4 to 5 leaves.
(§5) 18 pots of cucumber plants thus prepared were put in a spray booth and sprayed with the agrochemical solution prepared in (Step 1) in an amount of 80 l/ha. Further, 15 glass plates(10 cm×10 cm) were also sprayed with the same agrochemical solution prepared in (Step 1) in an amount of 80 l /ha.
(§6) Immediately after the spraying in (Step 2) , one leaf with its petiole attached was cut off from each of three cucumber plants, put in a test tube containing the appropriate washing solution and washed by agitating the tube with bottom-side up at 60 to 70 rpm for 2 minutes to obtain three wash extracts. Three glass plates were subjected to the same washing procedure in a petri dish(id 15.2 cm) to obtain three control wash extracts.
(§7) The remaining 15 cucumber plants and 12 glass plates were stored in the dark at room temperature, and the same washing procedure as above was repeated at 1 hour, 3 hours, 6 hours, 12 hours and 24 hours after the spraying.
(§8) The concentrations of the agrochemicals in the wash extracts were measured by HPLC(Spectra 200 Programmable Wavelength Detector, acetonitrile-water solvent programming, 42%-80%). The wash extracts obtained immediately after the spraying were used as standard solutions, and Congo Red, as an internal standard.

cucumber leaves [5] = settings: Baktadagi, in vivo, 0 h
Description: as §2, §3, §4, §5, §6, §7, §8

[6] = Glass plate control run of Example 3 (loss of dimethomorph other than by plant uptake); settings: 24 hours after spraying, stored in the dark at room temperature
Excerpt: The use of a control plate serves the purpose of determining the loss of agrochemical due to reasons other than plant uptake.
as §1
The agrochemical solution and control thus prepared were sprayed on leaves of each of six cucumber plants having 4 to 5 leaves, as well as on six glass plates(10 cm×10 cm). Immediately after the spraying, the sprayed cucumber leaves from 3 cucumber plants and three glass plates were washed with 12 ml portion of 30% acetonitrile-aqueous solution for 3 minutes to obtain standard wash extracts and controls. […]
The concentrations of dimethomorph and Congo Red in the wash extracts were measured by HPLC(Spectra 200 Programmable Wavelength Detector, acetonitrile-water solvent programming, 42%-80%) . […] The foliar uptake rate of dimethomorph was calculated by comparing the concentrations of dimethomorph and Congo Red in the wash extracts obtained immediately after the spraying and at 24 hours after the spraying.

## laurylamine ethoxylate [laurylamine ethoxylate(7)]
Rice plants [1]
  Recovery (%) of tricyclazole: 35.4%
  Uptake (%) of tricyclazole: 64.6%
Cucumber leaves [2]
  Recovery (%) of dimethomorph: 96.3%
  Uptake (%) of dimethomorph: 3.7%

## CC(C)OC(=O)C(C(=O)OC(C)C)=C1SCCS1 [Isoprothiolane, isoprothiolane]
Rice plants [3]
  Time-dependent Uptake by Rice(%) (Mean ± S.D.(n = 3)) I.A.: 0 ± 1.0%
  Time-dependent Uptake by Rice(%) (Mean ± S.D.(n = 3)) after 1 hr: 7.9 ± 1.9%
  Time-dependent Uptake by Rice(%) (Mean ± S.D.(n = 3)) after 3 hrs: 11.6 ± 1.2%
  Time-dependent Uptake by Rice(%) (Mean ± S.D.(n = 3)) after 6 hrs: 16.1 ± 1.3%
  Time-dependent Uptake by Rice(%) (Mean ± S.D.(n = 3)) after 12 hrs: 27.8 ± 1.1%
  Time-dependent Uptake by Rice(%) (Mean ± S.D.(n = 3)) after 24 hrs: 47.1 ± 2.5%
  absorption by the rice plants (in words): absorbed by the rice plants at a steady rate

## stearylamine ethoxylate [stearylamine ethoxylate(10)]
Rice plants [1]
  Recovery (%) of tricyclazole: 46.1%
  Uptake (%) of tricyclazole: 53.9%
Cucumber leaves [2]
  Recovery (%) of dimethomorph: 85.5%
  Uptake (%) of dimethomorph: 14.5%

## OC(c1ccc(Cl)cc1)(c1cncnc1)c1ccccc1Cl (stereo not shown) [Fenarimol, fenarimol]
Cucumber leaves [4]; 1 hr after spraying, stored in the dark, dimethomorph with 0.1% stearylamine ethoxylate
  Time-dependent Uptake by Cucumber(%) (Mean ± S.D.(n = 3)) after 1 hr: 2.0 ± 8.1%
Cucumber leaves [4]; 3 hrs after spraying, stored in the dark, dimethomorph with 0.1% stearylamine ethoxylate
  Time-dependent Uptake by Cucumber(%) (Mean ± S.D.(n = 3)) after 3 hrs: 3.2 ± 1.8%
Cucumber leaves [4]; 6 hrs after spraying, stored in the dark, dimethomorph with 0.1% stearylamine ethoxylate
  Time-dependent Uptake by Cucumber(%) (Mean ± S.D.(n = 3)) after 6 hrs: 5.2 ± 2.5%
Cucumber leaves [4]; 12 hrs after spraying, stored in the dark, dimethomorph with 0.1% stearylamine ethoxylate
  Time-dependent Uptake by Cucumber(%) (Mean ± S.D.(n = 3)) after 12 hrs: 8.0 ± 4.1%
Cucumber leaves [4]; stored in the dark, dimethomorph with 0.1% stearylamine ethoxylate
  Time-dependent Uptake by Cucumber(%) (Mean ± S.D.(n = 3)) after 24 hrs: 15.1 ± 4.0%
Cucumber leaves [4]; stored in the dark, dimethomorph with 0.1% stearylamine ethoxylate, listed as fenarimol
  Time-dependent Uptake by Cucumber(%) (Mean ± S.D.(n = 3)) after 24 hrs: 15.1%
Cucumber leaves [4]; immediately after the spraying, 80 l/ha, dimethomorph solution with 0.1% stearylamine ethoxylate
  Time-dependent Uptake by Cucumber(%) (Mean ± S.D.(n = 3)) I.A.: 0 ± 3.1%

## CCOP(=O)(Sc1ccccc1)Sc1ccccc1 [Edifenphos, edifenphos]
Rice plants [3]
  Time-dependent Uptake by Rice(%) (Mean ± S.D.(n = 3)) I.A.: 0 ± 1.3%
  Time-dependent Uptake by Rice(%) (Mean ± S.D.(n = 3)) after 1 hr: 1.5 ± 1.1%
  Time-dependent Uptake by Rice(%) (Mean ± S.D.(n = 3)) after 3 hrs: 4.9 ± 0.7%
  Time-dependent Uptake by Rice(%) (Mean ± S.D.(n = 3)) after 6 hrs: 7.8 ± 0.4%
  Time-dependent Uptake by Rice(%) (Mean ± S.D.(n = 3)) after 12 hrs: 14.5 ± 1.3%
  Time-dependent Uptake by Rice(%) (Mean ± S.D.(n = 3)) after 24 hrs: 29.8 ± 1.9%
  absorption by the rice plants (in words): absorbed by the rice plants at a steady rate

## Cc1cccc2sc3nncn3c12 [Tricyclazole, tricyclazole]
Rice plants [3]
  Time-dependent Uptake by Rice(%) (Mean ± S.D.(n = 3)) I.A.: 0 ± 1.1%
  Time-dependent Uptake by Rice(%) (Mean ± S.D.(n = 3)) after 1 hr: 1.4 ± 0.7%
  Time-dependent Uptake by Rice(%) (Mean ± S.D.(n = 3)) after 3 hrs: 1.1 ± 1.5%
  Time-dependent Uptake by Rice(%) (Mean ± S.D.(n = 3)) after 6 hrs: 2.0 ± 1.4%
  Time-dependent Uptake by Rice(%) (Mean ± S.D.(n = 3)) after 12 hrs: 4.1 ± 0.5%
  Time-dependent Uptake by Rice(%) (Mean ± S.D.(n = 3)) after 24 hrs: 11.0 ± 0.9%
  absorption by the rice plants (in words): absorbed by the rice plants at a steady rate
Rice plants [1]; rice
  Recovery (%) of tricyclazole: 82.4%
  Uptake (%) of tricyclazole: 17.6%

## COc1ccc(C(=CC(=O)N2CCOCC2)c2ccc(Cl)cc2)cc1OC [Dimethomorph, dimethomorph]
Cucumber leaves [5]
  Time-dependent Uptake by Cucumber(%) (Mean ± S.D.(n = 3)) I.A.: 0 ± 0.7%
[6]
  Uptake (%) of dimethomorph: 0.0%

## CCCCC(CC)COC(=O)CC(C(=O)OCC(CC)CCCC)S(=O)(=O)[O-].[Na+] (stereo not shown) [sodium dioctylsulfosuccinate]
Rice plants [1]
  Recovery (%) of tricyclazole: 79.1%
  Uptake (%) of tricyclazole: 20.9%
Cucumber leaves [2]
  Recovery (%) of dimethomorph: 94.5%
  Uptake (%) of dimethomorph: 5.5%

## tridecyl alcohol ethoxylate [tridecyl alcohol ethoxylate(5)]
Rice plants [1]
  Recovery (%) of tricyclazole: 75.6%
  Uptake (%) of tricyclazole: 24.4%
Cucumber leaves [2]
  Recovery (%) of dimethomorph: 98.0%
  Uptake (%) of dimethomorph: 2.0%

## nonylphenol ethoxylate [nonylphenol ethoxylate(10)]
Rice plants [1]
  Recovery (%) of tricyclazole: 80.6%
  Uptake (%) of tricyclazole: 19.4%
Cucumber leaves [2]
  Recovery (%) of dimethomorph: 99.8%
  Uptake (%) of dimethomorph: 0.2%

## castor oil ethoxylate [castor oil ethoxylate(17)]
Rice plants [1]
  Recovery (%) of tricyclazole: 63.7%
  Uptake (%) of tricyclazole: 36.3%

## CC12CC1(C)C(=O)N(c1cc(Cl)cc(Cl)c1)C2=O (stereo not shown) [Procymidone, procymidone]
Cucumber leaves [5]
  Time-dependent Uptake by Cucumber(%) (Mean ± S.D.(n = 3)) I.A.: 0 ± 0.8%
